This is an account of results in BindingDB's records for patent US20260055079 (Azkarra Therapeutics, 2026).

By IC50 is commonly meant the concentration at which inhibition is half-maximal. Higher therefore signals weaker potency.

Assay [1] concerns the target T1, Protein mono-ADP-ribosyltransferase TIPARP (Homo sapiens, UniProt Q7Z3E1).
T1 sequence (Q7Z3E1 whole entry): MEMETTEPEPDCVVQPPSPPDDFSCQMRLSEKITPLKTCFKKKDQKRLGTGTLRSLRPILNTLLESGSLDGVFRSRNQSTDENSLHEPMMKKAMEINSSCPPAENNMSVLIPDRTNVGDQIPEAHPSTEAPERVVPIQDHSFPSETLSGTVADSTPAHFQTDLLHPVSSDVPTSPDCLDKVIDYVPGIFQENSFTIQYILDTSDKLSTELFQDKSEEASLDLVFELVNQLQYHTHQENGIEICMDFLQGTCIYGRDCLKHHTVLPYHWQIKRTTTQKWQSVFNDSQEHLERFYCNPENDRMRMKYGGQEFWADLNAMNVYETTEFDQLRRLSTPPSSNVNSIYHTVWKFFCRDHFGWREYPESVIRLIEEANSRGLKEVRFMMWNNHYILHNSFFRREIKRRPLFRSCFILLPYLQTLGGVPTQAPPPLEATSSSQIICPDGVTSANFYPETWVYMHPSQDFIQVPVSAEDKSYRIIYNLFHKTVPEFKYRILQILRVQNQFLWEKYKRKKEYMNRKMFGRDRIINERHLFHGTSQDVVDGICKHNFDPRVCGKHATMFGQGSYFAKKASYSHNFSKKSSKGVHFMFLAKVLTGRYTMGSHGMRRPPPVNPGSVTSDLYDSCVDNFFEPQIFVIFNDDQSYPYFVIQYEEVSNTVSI
The assay can be described thus: PARP7 Biochemical Assay. Here is the method:
23 μL of 100 nM His-GST-PARP7 in PARP buffer for reaction (PBR) (50 mM HEPES pH 7.5, 100 mM NaCl, 4 mM MgCl2, 0.2 mM TCEP) was added to each well of XpressBio GSH-coated 384 well plates and incubated for 1 h at RT. The plate was then washed for 3 times in 50 μL PBST (1×PBS, 0.02% Tween-20), followed by one wash in 1×PBS and one wash PBR. Each wash was incubated for 3 min. After washing, varying concentrations of each inhibitor was pre-incubated with 20 μM (2×) 6-a-NAD+. The solution was added to the plate, diluted to 1× in PBR, and incubated at 30° C. for 90 min. Following the enzymatic reaction, the plate was washed 3 times in PBST, once in PBS for 3 min each wash. The wells were then subjected to 25 μL of click reaction buffer consisting of 100 μM TBTA, 1 mM CuSO4, 100 μM Biotin-N3, 2 mM TCEP made up in 1×PBS. The wells were incubated in click reaction buffer for 30 min at 30° C. The click buffer was removed, and the plate was washed 3 times with PBST and once with PBS as before. The plate was then blocked with 5% BSA in PBST. The plate was then washed 3 times with PBST and once with PBS. To develop, the plate was incubated with 25 μL of 0.05 ng/μL Step-HRP with 0.02% BSA in PBS. The plate was washed 3 times with PBS before developing with QuantaRed per manufacturer directions. Fluorescence (Excitation 550 nm. Emission 620 nm) was immediately read using a Paradigm Plate Reader.

Assay [2] addresses Poly [ADP-ribose] polymerase 2 (Homo sapiens, UniProt Q9UGN5). Put plainly: Protocol for the PARP1 and PARP2 Biochemical Assays. Here is the method: (§1) Each wash was incubated for 3 min. After washing, varying concentrations of each inhibitor was pre-incubated with 20 μM (2×) 6-a-NAD+. 25 μL of the 2×6-a-NAD+/inhibitor mixture was added to the plate with 25 μL of 20 nM of PARP1 or PARP2 in PBR with 0.1 mg/mL Activated DNA (Sigma). PARP final concentration 10 nM. The reaction mixture was incubated at 30° C. for 1 h. The plate was then washed 3 time with PBST and once with PBS. The wells were subjected to a 50 μL click reaction consisting of 100 μM TBTA, 1 mM CuSO4. 100 μM Biotin-N3, 2 mM TCEP made up in 1×PBS at RT for 30 min. The plate was then washed 3 times with PBST before blocking in 100 μL of 1% Milk (Carnation) in PBST at RT for 30 min. The plate was again washed 3 times with PBST and once with PBS before incubation with Strep-HRP (0.05 ng/μL Strep-HRP (Fisher Scientific), 300 ng/μL BSA, 1×PBS) for 30 min at RT. The plate was washed 3 time in PBST and once with PBS before development with QuantaRed (Pierce) per manufacturer directions.

Assay [3] has as its target Poly [ADP-ribose] polymerase 1 (Homo sapiens, UniProt P09874). Described as above. Here is the method: as §1

Chain of Poly [ADP-ribose] polymerase 2 (Q9UGN5 whole entry): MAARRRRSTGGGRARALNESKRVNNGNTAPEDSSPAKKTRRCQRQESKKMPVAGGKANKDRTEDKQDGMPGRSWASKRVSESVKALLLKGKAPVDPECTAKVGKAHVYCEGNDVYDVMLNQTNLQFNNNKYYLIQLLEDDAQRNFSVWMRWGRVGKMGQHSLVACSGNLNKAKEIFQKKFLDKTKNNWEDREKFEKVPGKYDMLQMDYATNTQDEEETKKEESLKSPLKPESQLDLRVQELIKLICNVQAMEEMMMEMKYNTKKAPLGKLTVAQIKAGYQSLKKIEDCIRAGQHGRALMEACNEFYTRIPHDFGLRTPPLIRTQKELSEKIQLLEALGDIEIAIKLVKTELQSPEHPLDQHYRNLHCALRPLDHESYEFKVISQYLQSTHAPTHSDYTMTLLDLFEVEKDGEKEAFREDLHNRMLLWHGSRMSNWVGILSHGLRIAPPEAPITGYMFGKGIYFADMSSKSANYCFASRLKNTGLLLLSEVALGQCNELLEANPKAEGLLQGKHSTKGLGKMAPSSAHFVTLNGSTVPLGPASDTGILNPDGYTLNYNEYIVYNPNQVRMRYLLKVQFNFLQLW
Chain of Poly [ADP-ribose] polymerase 1 (P09874 whole entry): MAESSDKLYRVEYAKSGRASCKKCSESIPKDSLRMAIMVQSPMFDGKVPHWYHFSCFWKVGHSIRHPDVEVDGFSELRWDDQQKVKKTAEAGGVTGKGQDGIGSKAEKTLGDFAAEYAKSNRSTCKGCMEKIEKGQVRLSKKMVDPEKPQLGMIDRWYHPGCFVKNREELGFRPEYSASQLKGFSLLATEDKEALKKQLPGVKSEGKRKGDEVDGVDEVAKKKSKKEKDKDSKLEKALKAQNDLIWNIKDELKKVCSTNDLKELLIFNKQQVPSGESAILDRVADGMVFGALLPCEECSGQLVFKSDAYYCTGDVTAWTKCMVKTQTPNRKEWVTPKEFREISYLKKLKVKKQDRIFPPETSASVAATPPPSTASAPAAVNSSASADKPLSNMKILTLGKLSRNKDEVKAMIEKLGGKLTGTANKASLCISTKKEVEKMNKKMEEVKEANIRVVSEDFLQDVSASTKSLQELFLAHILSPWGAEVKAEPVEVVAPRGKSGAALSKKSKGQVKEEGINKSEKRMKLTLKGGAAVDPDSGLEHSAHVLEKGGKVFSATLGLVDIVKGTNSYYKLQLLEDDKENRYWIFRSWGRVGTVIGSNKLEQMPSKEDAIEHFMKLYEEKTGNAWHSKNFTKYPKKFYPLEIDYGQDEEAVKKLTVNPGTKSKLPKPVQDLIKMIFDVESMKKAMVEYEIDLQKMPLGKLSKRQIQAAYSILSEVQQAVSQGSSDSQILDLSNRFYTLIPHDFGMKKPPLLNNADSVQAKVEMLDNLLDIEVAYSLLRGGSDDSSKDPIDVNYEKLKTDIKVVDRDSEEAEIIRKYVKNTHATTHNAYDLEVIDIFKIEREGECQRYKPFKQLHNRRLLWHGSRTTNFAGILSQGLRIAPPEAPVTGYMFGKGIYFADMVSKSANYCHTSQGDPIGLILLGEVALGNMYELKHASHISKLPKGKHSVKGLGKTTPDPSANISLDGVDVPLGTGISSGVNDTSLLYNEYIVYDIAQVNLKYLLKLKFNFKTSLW

As to `N#Cc1ccc(N2CCN(C(=O)c3cc(Cc4n[nH]c(=O)c5ccc(CCC(F)(F)F)cc45)ccc3F)CC2)nc1` [US20260055079, Example 25], the 50% inhibitory concentration (IC50) in assay [1] was less than 0.05 µM.
Take `N#Cc1ccc(N2CCN(C(=O)c3cc(Cc4n[nH]c(=O)c5ccc(/C=C/C(F)(F)F)cc45)ccc3F)CC2)nc1` [US20260055079, Example 27]: in assay [1], the concentration for half-maximal inhibition (IC50) was less than 0.05 µM.
Same read-out and setting: in the case of `CCc1ccc2c(=O)[nH]nc(Cc3ccc(F)c(C(=O)N4CCN(c5ncc(C(F)(F)F)cn5)CC4)c3)c2c1` [US20260055079, Example 43] it was less than 0.05 µM.
In turn, `CC#Cc1ccc2c(=O)[nH]nc(Cc3ccc(F)c(C(=O)N4CCN(c5ncc(C(F)(F)F)cn5)CC4)c3)c2c1` [US20260055079, Example 48] gave a half-inhibitory concentration (IC50) in assay [2] of more than 2 µM.
For `N#Cc1cnc(N2CCN(C(=O)c3cc(Cc4n[nH]c(=O)c5ccc(OC6CCC6)cc45)ccc3F)CC2)cc1C(F)(F)F` [US20260055079, Example 132], the half-inhibitory concentration (IC50) in assay [3] is more than 2 µM; in assay [2], more than 2 µM; in assay [1] it was less than 0.05 µM.
